Data taken from patent US20120309739A1, “AKT / PKB INHIBITORS” (ALMAC DISCOVERY LIMITED, priority 2009, published 2012).
Counter-ions that a name gives are not always drawn.

What was measured:
Format in all cases: biochemical
AKT1 = target: T1, AKT1 (Homo sapiens, UniProt P31749); assay: AKT Kinase Assay (IMAP fluorescent polarisation) vs AKT1; conditions: activated AKT1, FAM Crosstide substrate
T1 construct: purchased SignalChem
Summary of the method: (§1)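 Each activated AKT isoform, at a pre-determined linear-range concentration, was pre-incubated 45 min at room temperature with compound in a fourteen-point half-log series. ATP plus 5′FAM-Crosstide then reacted 1 h; IMAP binding reagent stopped it (1 h). Fluorescence polarisation (ex 485/em 528 nm) versus vehicle gave IC50 by non-linear regression.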

AKT2 = target: T2, AKT2 (Homo sapiens, UniProt P31751); assay: AKT Kinase Assay (IMAP fluorescent polarisation) vs AKT2; conditions: activated AKT2, FAM Crosstide substrate
T2 construct: purchased SignalChem
Summary of the method: as §1

AKT3 = target: T3, AKT3 (Homo sapiens, UniProt Q9Y243); assay: AKT Kinase Assay (IMAP fluorescent polarisation) vs AKT3; conditions: activated AKT3, FAM Crosstide substrate
T3 construct: purchased SignalChem
Summary of the method: as §1

T2 sequence (P31751 whole entry): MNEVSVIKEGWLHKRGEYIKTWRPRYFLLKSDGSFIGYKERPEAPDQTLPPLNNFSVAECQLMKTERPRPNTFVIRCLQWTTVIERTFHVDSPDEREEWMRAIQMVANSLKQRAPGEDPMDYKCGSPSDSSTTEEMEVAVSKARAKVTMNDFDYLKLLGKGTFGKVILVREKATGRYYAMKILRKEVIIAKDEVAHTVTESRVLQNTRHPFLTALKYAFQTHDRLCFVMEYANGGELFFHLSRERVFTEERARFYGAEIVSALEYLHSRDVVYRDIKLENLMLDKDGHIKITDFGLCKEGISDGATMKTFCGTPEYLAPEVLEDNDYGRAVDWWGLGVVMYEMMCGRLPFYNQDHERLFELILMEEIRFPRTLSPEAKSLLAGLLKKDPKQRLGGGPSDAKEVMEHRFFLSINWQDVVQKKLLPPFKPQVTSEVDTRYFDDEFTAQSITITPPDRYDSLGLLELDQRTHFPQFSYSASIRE
T3 sequence (Q9Y243 whole entry): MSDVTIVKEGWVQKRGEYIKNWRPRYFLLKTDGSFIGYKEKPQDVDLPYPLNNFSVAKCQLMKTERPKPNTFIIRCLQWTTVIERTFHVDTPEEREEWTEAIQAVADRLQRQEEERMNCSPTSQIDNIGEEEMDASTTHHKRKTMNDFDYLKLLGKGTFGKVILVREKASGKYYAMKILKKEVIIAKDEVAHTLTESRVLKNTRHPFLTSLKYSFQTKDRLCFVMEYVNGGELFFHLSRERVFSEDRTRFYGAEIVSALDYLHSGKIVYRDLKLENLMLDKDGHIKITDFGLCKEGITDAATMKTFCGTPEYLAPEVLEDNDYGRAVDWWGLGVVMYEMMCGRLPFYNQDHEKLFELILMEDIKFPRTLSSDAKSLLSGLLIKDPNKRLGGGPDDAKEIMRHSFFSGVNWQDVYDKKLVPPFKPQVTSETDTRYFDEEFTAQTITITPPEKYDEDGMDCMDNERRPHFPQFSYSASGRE
T1 sequence (P31749 whole entry): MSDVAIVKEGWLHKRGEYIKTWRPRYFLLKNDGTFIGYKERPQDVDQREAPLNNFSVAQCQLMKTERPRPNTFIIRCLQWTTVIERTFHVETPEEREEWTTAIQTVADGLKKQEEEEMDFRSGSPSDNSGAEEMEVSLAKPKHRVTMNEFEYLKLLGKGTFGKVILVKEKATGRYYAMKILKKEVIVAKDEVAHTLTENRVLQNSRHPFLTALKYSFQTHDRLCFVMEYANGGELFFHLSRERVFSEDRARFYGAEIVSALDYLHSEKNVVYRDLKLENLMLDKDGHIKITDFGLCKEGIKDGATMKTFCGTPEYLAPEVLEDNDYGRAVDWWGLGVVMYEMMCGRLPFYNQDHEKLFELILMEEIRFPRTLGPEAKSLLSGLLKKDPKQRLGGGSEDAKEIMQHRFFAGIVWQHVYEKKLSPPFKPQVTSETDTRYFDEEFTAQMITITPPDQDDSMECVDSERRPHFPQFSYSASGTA

Compound | IC50 (AKT1) [µM] | IC50 (AKT2) [µM] | IC50 (AKT3) [µM]
CSc1cnc2c(-c3ccccc3)c(-c3ccc(C4(N)CCC4)cc3)[nH]c2n1 [Example 153, 1-(4-(3-(Methylthio)-7-phenyl-5H-pyrrolo[3,2-b]pyrazin-6-yl)phenyl)cyclobutanamine] | 0.1 to 1 | 0.1 to 1 | > 10
CSc1nc(I)c2c(-c3ccccc3)c(-c3ccc(C4(N)CCC4)cc3)oc2n1 [Example 75, 1-(4-(4-Iodo-2-(methylthio)-5-phenylfuro[2,3-d]pyrimidin-6-yl)phenyl)cyclobutanamine] | 1 to 10 | 1 to 10 | > 10
Cc1nc(NCCO)nc2oc(-c3ccc(C4(N)CCC4)cc3)c(-c3ccccc3)c12 [Example 72, 2-((6-(4-(1-Aminocyclobutyl)phenyl)-4-methyl-5-phenylfuro[2,3-d]pyrimidin-2-yl)amino)ethanol] | 0.1 to 1 | 0.1 to 1 | 1 to 10
Cn1c(C2CC2)nc2oc(-c3ccc(C4(N)CCC4)cc3)c(-c3ccccc3)c2c1=O [Example 90, 6-(4-(1-Aminocyclobutyl)phenyl)-2-cyclopropyl-3-methyl-5-phenylfuro[2,3-d]pyrimidin-4(3H)-one] | 0.1 to 1 | 0.1 to 1 | > 10
NC1(c2ccc(-c3oc4nc(NCCO)n(CC5CC5)c(=O)c4c3-c3ccccc3)cc2)CCC1 [Example 95, 6-(4-(1-Aminocyclobutyl)phenyl)-3-(cyclopropylmethyl)-2-((2-hydroxyethyl)amino)-5-phenylfuro[2,3-d]pyrimidin-4(3H)-one] | 1 to 10 | ≤ 0.1 | 1 to 10
N#Cc1ccc2oc(-c3ccc(C4(N)CCC4)cc3)c(-c3ccccc3)c2c1 [Example 6, 2-(4-(1-Aminocyclobutyl)phenyl)-3-phenylbenzofuran-5-carbonitrile] | 1 to 10 | 1 to 10 | > 10
COc1nccc2c(I)c(-c3ccc(C4(N)CCC4)cc3)oc12 [Example 127, 1-(4-(3-Iodo-7-methoxyfuro[2,3-c]pyridin-2-yl)phenyl)cyclobutanamine] | > 10 | 1 to 10 | > 10
NC1(c2ccc(-c3oc4nc(NCCO)n(CC(F)(F)F)c(=O)c4c3-c3ccccc3)cc2)CCC1 [Example 121, 6-(4-(1-Aminocyclobutyl)phenyl)-2-((2-hydroxyethyl)amino)-5-phenyl-3-(2,2,2-trifluoroethyl)furo[2,3-d]pyrimidin-4(3H)-one] | 0.1 to 1 | ≤ 0.1 | 1 to 10
COc1nc(N2CCN(C(C)=O)CC2)nc2oc(-c3ccc(C4(N)CCC4)cc3)c(-c3ccccc3)c12 [Example 45, 1-(4-(6-(4-(1-Aminocyclobutyl)phenyl)-4-methoxy-5-phenylfuro[2,3-d]pyrimidin-2-yl)piperazin-1-yl)ethanone] | 0.1 to 1 | 0.1 to 1 | 1 to 10
NC1(c2ccc(-c3oc4nc(NCCO)nc(N5CCOCC5)c4c3-c3ccccc3)cc2)CCC1 [Example 71, 2-((6-(4-(1-Aminocyclobutyl)phenyl)-4-morpholino-5-phenylfuro[2,3-d]pyrimidin-2-yl)amino)ethanol] | 1 to 10 | 1 to 10 | > 10
Cn1cc(-c2cncnc2)c2oc(-c3ccc(C4(N)CCC4)cc3)c(-c3ccccc3)c2c1=O [Example 115, 2-(4-(1-Aminocyclobutyl)phenyl)-5-methyl-3-phenyl-7-(pyrimidin-5-yl)furo[3,2-c]pyridin-4(5H)-one] | 0.1 to 1 | 1 to 10 | > 10
CCNc1nc(NCCO)nc2oc(-c3ccc(C4(N)CCC4)cc3)c(-c3ccccc3)c12 [Example 81, 2-(6-(4-(1-Aminocyclobutyl)phenyl)-4-(ethylamino)-5-phenylfuro[2,3-d]pyrimidin-2-ylamino)ethanol, HCl] | 0.1 to 1 | 1 to 10 | > 10
NC1(c2ccc(-c3oc4ncn(CCO)c(=O)c4c3-c3ccccc3)cc2)CCC1 [Example 102, 6-(4-(1-Aminocyclobutyl)phenyl)-3-(2-hydroxyethyl)-5-phenylfuro[2,3-d]pyrimidin-4(3H)-one, HCl] | 1 to 10 | 0.1 to 1 | 1 to 10
Cn1c(N2CC[C@H](O)C2)nc2oc(-c3ccc(C4(N)CCC4)cc3)c(-c3ccccc3)c2c1=O [Example 56, (S)-6-(4-(1-aminocyclobutyl)phenyl)-2-(3-hydroxypyrrolidin-1-yl)-3-methyl-5-phenylfuro[2,3-d]pyrimidin-4(3H)-one] | 0.1 to 1 | ≤ 0.1 | 1 to 10

More lines, now with the values ahead:

IC50 (AKT1) [µM] | IC50 (AKT2) [µM] | IC50 (AKT3) [µM] | Compound
0.1 to 1 | 0.1 to 1 | 1 to 10 | NC1(c2ccc(-c3oc4ncc(C5CC5)nc4c3-c3ccccc3)cc2)CCC1 [Example 138, 1-(4-(2-Cyclopropyl-7-phenylfuro[2,3-b]pyrazin-6-yl)phenyl)cyclobutanamine]
1 to 10 | ≤ 0.1 | > 10 | NC1(c2ccc(-c3oc4ccn(CC(F)(F)F)c(=O)c4c3-c3ccccc3)cc2)CCC1 [Example 109, 2-(4-(1-Aminocyclobutyl)phenyl)-3-Phenyl-5-(2,2,2-trifluoroethyl)furo[3,2-c]pyridin-4(5H)-one, HCl]
0.1 to 1 | 0.1 to 1 | > 10 | COc1nc(N2CCC(O)CC2)nc2oc(-c3ccc(C4(N)CCC4)cc3)c(-c3ccccc3)c12 [Example 40, 1-(6-(4-(1-Aminocyclobutyl)phenyl)-4-methoxy-5-phenylfuro[2,3-d]pyrimidin-2-yl)piperidin-4-ol]
≤ 0.1 | 0.1 to 1 | > 10 | COc1ncnc2oc(-c3ccc(C4(N)CCC4)cc3)c(-c3ccccc3)c12 [Example 78, 1-(4-(4-Methoxy-5-phenylfuro[2,3-d]pyrimidin-6-yl)phenyl)cyclobutanamine]
1 to 10 | 0.1 to 1 | > 10 | NC1(c2ccc(-c3oc4ncc(-c5cccnc5)nc4c3-c3ccccc3)cc2)CCC1 [Example 150, 1-(4-(7-Phenyl-2-(pyridin-3-yl)furo[2,3-b]pyrazin-6-yl)phenyl)cyclobutanamine, 2HCl]
0.1 to 1 | ≤ 0.1 | 1 to 10 | Cn1c(N2CC[C@@H](O)C2)nc2oc(-c3ccc(C4(N)CCC4)cc3)c(-c3ccccc3)c2c1=O [Example 57, (R)-6-(4-(1-Aminocyclobutyl)phenyl)-2-(3-hydroxypyrrolidin-1-yl)-3-methyl-5-phenylfuro[2,3-d]pyrimidin-4(3H)-one]
1 to 10 | 0.1 to 1 | 1 to 10 | COc1nc(N2CCOCC2)nc2oc(-c3ccc(C4(N)CCC4)cc3)c(-c3ccccc3)c12 [Example 13, 1-(4-(4-Methoxy-2-morpholino-5-phenylfuro[2,3-d]pyrimidin-6-yl)phenyl)cyclobutanamine]
0.1 to 1 | 0.1 to 1 | 1 to 10 | C[C@H](O)CNc1nc2oc(-c3ccc(C4(N)CCC4)cc3)c(-c3ccccc3)c2c(=O)n1C [Example 86, (S)-6-(4-(1-Aminocyclobutyl)phenyl)-2-((2-hydroxypropyl)amino)-3-methyl-5-phenylfuro[2,3-d]pyrimidin-4(3H)-one]
0.1 to 1 | 0.1 to 1 | 1 to 10 | Cn1c(N2CCCC2)nc2oc(-c3ccc(C4(N)CCC4)cc3)c(-c3ccccc3)c2c1=O [Example 58, 6-(4-(1-Aminocyclobutyl)phenyl)-3-methyl-5-phenyl-2-(pyrrolidin-1-yl)furo[2,3-d]pyrimidin-4(3H)-one hydrochloride]
